In US20080012929A1, “AZO DYE, HEAT-SENSITIVE TRANSFER RECORDING INK SHEET, HEAT-SENSITIVE TRANSFER RECORDING METHOD, COLOR TONER, INKJET INK AND COLOR FILTER” (FUJIFILM Corporation, priority 2006, published 2008):

Legend:
[1] = Solubility of dye when preparing the ink sheet dye-providing layer-coating composition; type: physicochemical; parameters: key: A: the dye easily dissolves; B: the dye dissolves; C: the dye is sparingly soluble, but dissolves; settings: methyl ethyl ketone/toluene (1/1), polyvinylbutyral resin
Protocol: A polyester film of 6.0 μm in thickness (trade name: Lumirror, manufactured by Toray Industries, Inc.), a back surface of which had been subjected to a heat resistant lubricating treatment with a 1 μm thick thermosetting acrylic resin, was used as a support. On the front surface of the film, the following dye-providing layer-coating composition was coated by a wire bar coating so that a dry thinness of the dye-providing layer became 1 μm. Thus, Ink sheet 1 was prepared.
Solubility of these dyes contained in these ink sheets were evaluated according to the following three grades: • A: the dye easily dissolves. • B: the dye dissolves. • C: the dye is sparingly soluble, but dissolves.

[2] = Light stability (fastness to light) of the dye image under Xenon light irradiation; type: physicochemical; settings: residual ratio of Status A reflection density (initial 1.0) after Xenon light (17000 lux) for 7 days
Protocol: Next, each of the thus-image-recorded heat-sensitive transfer image-receiving materials was subjected to irradiation with Xenon light (17000 lux) for 7 days, to examine light stability (fastness to light) of the dye image. Status A reflection densities after irradiation were measured in the portions indicating Status A reflection density of 1.0, and a stability of the image was evaluated in terms of a residual ratio (percentage) based on the reflection density before irradiation, according to the following three grades: • A: 80% or more, but 100% or less • B: 60% or more, but less than 80% • C: less than 60%

| Solubility of dye [1] | Light fastness [2] | SMILES |
| --- | --- | --- |
| B | A (80% or more, but 100% or less) | CCCCN(CCCC)C(=O)c1ccc2c(c1)C(=O)C(c1nc3ccc(C(C)C)cc3cc1O)C2=O (stereo not drawn) [Dye for Comparison 3, reference compound] |
| A | A (80% or more, but 100% or less) | CC(C)CCn1nc(C(C)(C)C)c(N=Nc2ccc([N+](=O)[O-])cc2)c1N [(9)] |
| A | A (80% or more, but 100% or less) | CC(C)Cn1nc(C(C)(C)C)c(N=Nc2ccc([N+](=O)[O-])cc2)c1N [(7)] |
| A | A (80% or more, but 100% or less) | CCCCCn1nc(C(C)(C)C)c(N=Nc2ccc([N+](=O)[O-])cc2)c1N [(5)] |
| A | C (less than 60%) | CCN(CCOc1ccc(C2CCCCC2)cc1)c1ccc(C=C(C#N)C#N)c(C)c1 [Dye for Comparison 2, reference compound] |
| A | A (80% or more, but 100% or less) | CCC(C)n1nc(C(C)(C)C)c(N=Nc2ccc([N+](=O)[O-])cc2)c1N (stereo not drawn) [(8)] |
